Here are results for two compounds from patent US12351574B2, “Selective ligands for modulation of GIRK channels” (Northeastern University, priority 2018, dated 2025).

Where a chain is given by its changes, count along the chain named.

One data set concerns the target T1, GIRK1/2(IV-VT) (UniProt P48542+P48549, I97V/V99T).
T1 construct: expressed in transfected cells; host or cells: Xenopus laevis oocytes (cRNA injection)
T1 sequence (P48549 1-501): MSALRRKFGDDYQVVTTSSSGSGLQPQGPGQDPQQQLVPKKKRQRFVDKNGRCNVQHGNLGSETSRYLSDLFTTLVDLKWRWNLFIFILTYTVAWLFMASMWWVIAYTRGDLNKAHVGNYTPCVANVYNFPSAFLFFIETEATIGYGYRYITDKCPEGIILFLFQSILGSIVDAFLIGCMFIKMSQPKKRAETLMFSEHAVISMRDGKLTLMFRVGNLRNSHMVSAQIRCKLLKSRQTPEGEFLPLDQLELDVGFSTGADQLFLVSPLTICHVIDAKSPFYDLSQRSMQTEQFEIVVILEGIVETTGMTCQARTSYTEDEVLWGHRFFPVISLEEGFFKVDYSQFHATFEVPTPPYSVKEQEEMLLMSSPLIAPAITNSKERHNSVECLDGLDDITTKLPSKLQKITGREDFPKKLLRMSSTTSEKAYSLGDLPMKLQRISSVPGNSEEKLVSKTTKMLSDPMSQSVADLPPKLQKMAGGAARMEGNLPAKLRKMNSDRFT
T1 sequence (P48542 1-425 I97V/V99T): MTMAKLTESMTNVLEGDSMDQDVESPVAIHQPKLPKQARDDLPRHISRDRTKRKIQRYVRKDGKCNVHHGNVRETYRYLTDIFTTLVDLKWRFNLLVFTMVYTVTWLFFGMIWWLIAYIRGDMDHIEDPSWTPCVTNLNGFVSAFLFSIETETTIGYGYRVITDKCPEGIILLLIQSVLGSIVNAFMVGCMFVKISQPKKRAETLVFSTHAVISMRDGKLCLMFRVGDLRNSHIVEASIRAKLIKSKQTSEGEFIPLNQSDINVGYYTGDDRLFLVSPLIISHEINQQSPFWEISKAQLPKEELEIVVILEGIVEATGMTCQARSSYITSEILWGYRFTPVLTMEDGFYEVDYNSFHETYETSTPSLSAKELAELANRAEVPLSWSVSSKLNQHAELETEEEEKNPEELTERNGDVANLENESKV
Nature of the data set: TEVC in Xenopus oocytes, double mutant GIRK1/2(IV-VT). It is filed as cell-based, human GIRK1, mouse GIRK2. To be noted: GIRK1/2(IV-VT) double mutant. From the text:
(§1) Molecular biology: For Xenopus oocyte expression, human GIRK1 and human GIRK4 cDNAs were subcloned into pGEMHE. For mammalian expression, human GIRK1 and human GIRK4 cDNAs were subcloned into pcDNA3 and pcDNA3.1/V5-His B, respectively (Invitrogen). Mouse GIRK2 cDNA was subcloned in the dual-function vector, pXoom. Point mutations were introduced using a standard Pfu-based mutagenesis technique according to the QuikChange protocol (Agilent). Mutations were verified by sequencing.
(§2) Electrophysiology of oocytes: Whole-oocyte currents were measured by conventional two-electrode voltage clamp (TEVC) with a GeneClamp 500 amplifier (Axon Instruments). Agarose cushion microelectrodes were filled with 1.5% (w/v) agarose in 3 M KCl and were used with resistances between 0.1 and 1.5 megaohms. […] Barium-sensitive basal currents from both groups, 1) Vehicle, 2) single concentration at 10 μM and 3) multiple concentrations of ML297 or GAT compounds in the presence of HK solution, were assessed at −80 mV using TEVC. Barium-sensitive currents were normalized to average basal current in the vehicle solutions. The HK solution contained the following: 96 mM KCl, 1 mM NaCl, 1 mM MgCl2, 5 mM KOH/HEPES, pH 7.4. The barium solution consisted of HK+10 mM BaCl2. Five to ten oocytes from the same batch (same frog) were recorded for each group, and the experiments were repeated in at least four batches. Data acquisition and analysis were carried out using pClamp9 (Molecular Devices) and OriginPro (Microcal) software.
(§3) To test these computational predictions, the inventors mutated each or both of the two M1 key wild-type GIRK4 subunit residues to the corresponding GIRK2 residues (GIRK4-V92I, GIRK4-T94V, GIRK4-V92I/T94V or GIRK4-dm) and vice-versa the GIRK2 residues to the corresponding GIRK4 ones (GIRK2-I97V, GIRK2-V99T, GIRK2-I97V/V99T or GIRK2-dm) (FIG. 35). […]

The target of a further data set is T2, GIRK1/2(I-V) (UniProt P48542+P48549, I97V).
T2 construct: expressed in transfected cells; host or cells: Xenopus laevis oocytes (cRNA injection)
T2 sequence (P48549 1-501): T1 sequence (P48549 1-501)
T2 sequence (P48542 1-425 I97V): T1 sequence (P48542 1-425 I97V/V99T) with T99V
Nature of the data set: TEVC in Xenopus oocytes, single mutant GIRK1/2(I-V). The data set is classed as cell-based, human GIRK1, mouse GIRK2. To be noted: GIRK1/2(I-V) single mutant.
Source text: as §1, §2, §3

Data set [1] concerns the target human ERG (hERG) channels (Homo sapiens, UniProt Q12809). On the set-up: expressed in transfected cells; host or cells: Xenopus oocytes. The following applies: published; cited from earlier work.
The mark [2] stands for this setting: read-out: EMAX, % of the control GIRK1/2.

For orientation: EC50 means the concentration giving half of the maximal effect. Read a high EC50 as a less potent agent. Broadly, the IC50 is the concentration at which inhibition is half-maximal.

Chain of human ERG (hERG) channels (Q12809 whole entry): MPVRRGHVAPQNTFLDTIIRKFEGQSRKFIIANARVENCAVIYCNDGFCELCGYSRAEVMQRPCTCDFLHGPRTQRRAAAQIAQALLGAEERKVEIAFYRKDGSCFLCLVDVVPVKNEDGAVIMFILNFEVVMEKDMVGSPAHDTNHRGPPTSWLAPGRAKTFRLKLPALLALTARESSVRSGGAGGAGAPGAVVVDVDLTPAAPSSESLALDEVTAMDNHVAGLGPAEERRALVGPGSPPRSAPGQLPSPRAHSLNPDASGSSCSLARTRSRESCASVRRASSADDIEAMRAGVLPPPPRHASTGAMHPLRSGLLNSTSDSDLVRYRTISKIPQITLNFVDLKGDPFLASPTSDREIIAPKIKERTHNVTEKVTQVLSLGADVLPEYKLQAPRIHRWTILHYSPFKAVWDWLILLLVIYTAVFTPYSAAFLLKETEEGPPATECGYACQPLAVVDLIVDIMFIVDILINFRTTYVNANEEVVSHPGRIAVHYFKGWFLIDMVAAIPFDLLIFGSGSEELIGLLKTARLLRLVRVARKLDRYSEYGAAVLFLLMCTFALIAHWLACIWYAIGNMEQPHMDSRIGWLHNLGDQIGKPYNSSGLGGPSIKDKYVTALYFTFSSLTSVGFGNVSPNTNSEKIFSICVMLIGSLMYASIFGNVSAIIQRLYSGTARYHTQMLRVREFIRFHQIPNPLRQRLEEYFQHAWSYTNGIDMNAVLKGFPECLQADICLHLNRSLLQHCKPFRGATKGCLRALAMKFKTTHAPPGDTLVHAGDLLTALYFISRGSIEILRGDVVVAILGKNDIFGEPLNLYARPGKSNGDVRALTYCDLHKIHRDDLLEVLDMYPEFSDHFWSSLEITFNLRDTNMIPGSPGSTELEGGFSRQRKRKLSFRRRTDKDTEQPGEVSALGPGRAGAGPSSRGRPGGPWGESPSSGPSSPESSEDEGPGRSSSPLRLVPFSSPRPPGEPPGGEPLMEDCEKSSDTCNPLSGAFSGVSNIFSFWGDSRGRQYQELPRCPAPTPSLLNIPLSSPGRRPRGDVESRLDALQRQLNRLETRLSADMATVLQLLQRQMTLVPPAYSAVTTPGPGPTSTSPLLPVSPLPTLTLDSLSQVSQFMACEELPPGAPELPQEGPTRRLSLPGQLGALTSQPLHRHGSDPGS

As for `Cc1cc(NC(=O)Nc2ccc(Br)s2)n(-c2ccccc2)n1` [GAT1508, 1-(5-bromothiophen-2-yl)-3-(3-methyl-1-phenyl-1H-pyrazol-5-yl)urea], the EC50 was 940 ± 150 nM on GIRK1/2(IV-VT) and 500 ± 110 nM on GIRK1/2(I-V). Moreover, the EMAX was found to be 1.68±0.04 on GIRK1/2(IV-VT) and 1.61±0.03 on GIRK1/2(I-V). Also, the Emax came out at 72% on GIRK1/2(IV-VT) (setting [2]) and 42% on GIRK1/2(I-V) (setting [2]).
Turning to `Cc1cc(NC(=O)Nc2ccc(F)c(F)c2)n(-c2ccccc2)n1` [ML297, reference compound], in data set [1], the IC50 was around 10000 nM.
